Data from US8653041B2, “Antibacterial aminoglycoside analogs” (Achaogen, Inc., priority 2010, dated 2014).
≈ marks a conversion by molar mass, not a printed value. Like-named read-outs stand apart in the source and are kept apart here.

How the values were obtained:
[1] = system: Pseudomonas aeruginosa; experiment: MIC, CLSI broth microdilution, Pseudomonas aeruginosa panel; type: cell-based
Procedure: (§1) Minimum inhibitory concentrations (MIC) were determined by reference Clinical and Laboratory Standards Institute (CLSI) broth microdilution methods per M7-A7 [2006]. Quality control ranges utilizing E. coli ATCC 25922, P. aeruginosa ATCC 27853 and S. aureus ATCC 29213, and interpretive criteria for comparator agents were as published in CLSI M100-S17 [2007]. Briefly, serial two-fold dilutions of the test compounds were prepared at 2× concentration in Mueller Hinton Broth. The compound dilutions were mixed in 96-well assay plates in a 1:1 ratio with bacterial inoculum. The inoculum was prepared by suspension of a colony from an agar plate that was prepared the previous day. Bacteria were suspended in sterile saline and added to each assay plate to obtain a final concentration of 5×10^5 CFU/mL. The plates were incubated at 35 C for 20 hours in ambient air.
The MIC panel presented in Table 1 contains 27 isolates of Pseudomonas aeruginosa: strains 1-22 are clinical isolates from around the world collected between 2004-2007 which contain representative resistance mechanisms commonly found in Pseudomonas, such as the AAC(6′)-I, AAC(6′)-II, APH(3′)-IIb, ANT(2″)-I, and perm/efflux; strains 23-27 are susceptible.

[2] = system: Acinetobacter baumannii; experiment: MIC, CLSI broth microdilution, Acinetobacter baumannii panel; type: cell-based; details: Acinetobacter baumannii, read-out: MIC
Procedure: as §1
The MIC panel presented in Table 2 contains 29 isolates of Acinetobacter baumannii: strains 1-24 are clinical isolates from around the world collected between 2004-2007 which contain representative resistance mechanisms commonly found in Acinetobacter baumannii, such as AAC(3)-I and II, AAC(6′)-I, ANT(2″)-I, APH(3′)-VI, and perm/efflux; strains 25-29 are susceptible.

NC[C@@H]1O[C@H](O[C@H]2[C@@H](O)[C@H](O[C@@H]3[C@@H](O)[C@H](N)C[C@H](N)[C@H]3O[C@H]3O[C@H](CN)[C@@H](O)[C@H](O)[C@H]3N)O[C@@H]2CO)[C@H](N)[C@@H](O)[C@@H]1O [Neo B, neomycin B] was tested, and the MIC ([1]; P. aeruginosa clinical strain 1 (resistant clinical isolate)) was “E (MIC's greater than or equal to 32.0 μg/mL = E)”, the MIC ([1]; P. aeruginosa clinical strain 2 (resistant clinical isolate)) was “D (MIC's greater than or equal to 16.0 μg/mL and lower than 32 μg/mL = D)” and the MIC ([1]; P. aeruginosa clinical strain 3 (resistant clinical isolate)) was “E (MIC's greater than or equal to 32.0 μg/mL = E)”. The MIC ([1]; P. aeruginosa clinical strain 4 (resistant clinical isolate)) was “E (MIC's greater than or equal to 32.0 μg/mL = E)”, the MIC ([1]; P. aeruginosa clinical strain 5 (resistant clinical isolate)) was “E (MIC's greater than or equal to 32.0 μg/mL = E)” and the MIC ([1]; P. aeruginosa clinical strain 6 (resistant clinical isolate)) was “D (MIC's greater than or equal to 16.0 μg/mL and lower than 32 μg/mL = D)”. The MIC ([1]; P. aeruginosa clinical strain 7 (resistant clinical isolate)) was “C (MIC's greater than or equal to 8 μg/mL and lower than 16.0 μg/mL = C)”, the MIC ([1]; P. aeruginosa clinical strain 8 (resistant clinical isolate)) was “E (MIC's greater than or equal to 32.0 μg/mL = E)” and the MIC ([1]; P. aeruginosa clinical strain 9 (resistant clinical isolate)) was “D (MIC's greater than or equal to 16.0 μg/mL and lower than 32 μg/mL = D)”. For the same compound, the MIC ([1]; P. aeruginosa clinical strain 10 (resistant clinical isolate)) was “E (MIC's greater than or equal to 32.0 μg/mL = E)”, the MIC ([1]; P. aeruginosa clinical strain 11 (resistant clinical isolate)) was “B (MIC's of greater than 1.0 μg/mL and lower than 8 μg/mL = B)” and the MIC ([1]; P. aeruginosa clinical strain 12 (resistant clinical isolate)) was “E (MIC's greater than or equal to 32.0 μg/mL = E)”. The MIC ([1]; P. aeruginosa clinical strain 13 (resistant clinical isolate)) was “E (MIC's greater than or equal to 32.0 μg/mL = E)”, the MIC ([1]; P. aeruginosa clinical strain 14 (resistant clinical isolate)) was “E (MIC's greater than or equal to 32.0 μg/mL = E)” and the MIC ([1]; P. aeruginosa clinical strain 15 (resistant clinical isolate)) was “E (MIC's greater than or equal to 32.0 μg/mL = E)”. For the same compound, the MIC ([1]; P. aeruginosa clinical strain 16 (resistant clinical isolate)) was “E (MIC's greater than or equal to 32.0 μg/mL = E)”, the MIC ([1]; P. aeruginosa clinical strain 17 (resistant clinical isolate)) was “C (MIC's greater than or equal to 8 μg/mL and lower than 16.0 μg/mL = C)” and the MIC ([1]; P. aeruginosa clinical strain 18 (resistant clinical isolate)) was “E (MIC's greater than or equal to 32.0 μg/mL = E)”. The MIC ([1]; P. aeruginosa clinical strain 19 (resistant clinical isolate)) was “E (MIC's greater than or equal to 32.0 μg/mL = E)”, the MIC ([1]; P. aeruginosa clinical strain 20 (resistant clinical isolate)) was “E (MIC's greater than or equal to 32.0 μg/mL = E)” and the MIC ([1]; P. aeruginosa clinical strain 21 (resistant clinical isolate)) was “E (MIC's greater than or equal to 32.0 μg/mL = E)”. For the same compound, the MIC ([1]; P. aeruginosa clinical strain 22 (resistant clinical isolate)) was “E (MIC's greater than or equal to 32.0 μg/mL = E)”, the MIC ([1]; P. aeruginosa strain 23 (susceptible)) was “B (MIC's of greater than 1.0 μg/mL and lower than 8 μg/mL = B)” and the MIC ([1]; P. aeruginosa strain 24 (susceptible)) was “B (MIC's of greater than 1.0 μg/mL and lower than 8 μg/mL = B)”. The MIC ([1]; P. aeruginosa strain 25 (susceptible)) was “B (MIC's of greater than 1.0 μg/mL and lower than 8 μg/mL = B)”, the MIC ([1]; P. aeruginosa strain 26 (susceptible)) was “C (MIC's greater than or equal to 8 μg/mL and lower than 16.0 μg/mL = C)” and the MIC ([1]; P. aeruginosa strain 27 (susceptible)) was “B (MIC's of greater than 1.0 μg/mL and lower than 8 μg/mL = B)”.
Work on NC[C@H]1O[C@H](O[C@H]2[C@H](O)[C@@H](O[C@H]3O[C@H](CO)[C@@H](O)[C@H](N)[C@H]3O)[C@H](N)C[C@@H]2N)[C@H](N)C[C@@H]1O [TOB, tobramycin] yielded an MIC ([2]; A. baumannii clinical strain 1 (resistant clinical isolate)) of no less than 32 µg/mL, an MIC ([2]; A. baumannii clinical strain 2 (resistant clinical isolate)) of no less than 32 µg/mL and an MIC ([2]; A. baumannii clinical strain 3 (resistant clinical isolate)) of no less than 32 µg/mL. The MIC ([2]; A. baumannii clinical strain 4 (resistant clinical isolate)) was no less than 32 µg/mL, the MIC ([2]; A. baumannii clinical strain 5 (resistant clinical isolate)) was no less than 32 µg/mL and the MIC ([2]; A. baumannii clinical strain 6 (resistant clinical isolate)) was no less than 32 µg/mL. The MIC ([2]; A. baumannii clinical strain 7 (resistant clinical isolate)) was 1 to 8 µg/mL (≈ 2.14 to 17.1 µM), the MIC ([2]; A. baumannii clinical strain 8 (resistant clinical isolate)) was no less than 32 µg/mL and the MIC ([2]; A. baumannii clinical strain 9 (resistant clinical isolate)) was no less than 32 µg/mL. The MIC ([2]; A. baumannii clinical strain 10 (resistant clinical isolate)) was no less than 32 µg/mL, the MIC ([2]; A. baumannii clinical strain 11 (resistant clinical isolate)) was no less than 32 µg/mL and the MIC ([2]; A. baumannii clinical strain 12 (resistant clinical isolate)) was 16 to 32 µg/mL (≈ 34.2 to 68.4 µM). It also gave an MIC ([2]; A. baumannii clinical strain 13 (resistant clinical isolate)) of no more than 1 µg/mL, an MIC ([2]; A. baumannii clinical strain 14 (resistant clinical isolate)) of no more than 1 µg/mL and an MIC ([2]; A. baumannii clinical strain 15 (resistant clinical isolate)) of no more than 1 µg/mL. The MIC ([2]; A. baumannii clinical strain 16 (resistant clinical isolate)) was 1 to 8 µg/mL (≈ 2.14 to 17.1 µM), the MIC ([2]; A. baumannii clinical strain 17 (resistant clinical isolate)) was no more than 1 µg/mL and the MIC ([2]; A. baumannii clinical strain 18 (resistant clinical isolate)) was 1 to 8 µg/mL (≈ 2.14 to 17.1 µM). The MIC ([2]; A. baumannii clinical strain 19 (resistant clinical isolate)) was no more than 1 µg/mL, the MIC ([2]; A. baumannii clinical strain 20 (resistant clinical isolate)) was 1 to 8 µg/mL (≈ 2.14 to 17.1 µM) and the MIC ([2]; A. baumannii clinical strain 21 (resistant clinical isolate)) was no less than 32 µg/mL. The MIC ([2]; A. baumannii clinical strain 22 (resistant clinical isolate)) was no less than 32 µg/mL, the MIC ([2]; A. baumannii clinical strain 23 (resistant clinical isolate)) was no less than 32 µg/mL and the MIC ([2]; A. baumannii clinical strain 24 (resistant clinical isolate)) was no less than 32 µg/mL. It also gave an MIC ([2]; A. baumannii strain 25 (susceptible)) of no more than 1 µg/mL, an MIC ([2]; A. baumannii strain 26 (susceptible)) of no more than 1 µg/mL and an MIC ([2]; A. baumannii strain 27 (susceptible)) of no more than 1 µg/mL. For the same compound, the MIC ([2]; A. baumannii strain 28 (susceptible)) was no more than 1 µg/mL, the MIC ([2]; A. baumannii strain 29 (susceptible)) was no more than 1 µg/mL and the MIC ([1]; Pseudomonas aeruginosa, P. aeruginosa clinical strain 1 (resistant clinical isolate), read-out: MIC) was no less than 32 µg/mL. The MIC ([1]; Pseudomonas aeruginosa, P. aeruginosa clinical strain 2 (resistant clinical isolate), read-out: MIC) was 16 to 32 µg/mL (≈ 34.2 to 68.4 µM), the MIC ([1]; Pseudomonas aeruginosa, P. aeruginosa clinical strain 3 (resistant clinical isolate), read-out: MIC) was no less than 32 µg/mL and the MIC ([1]; Pseudomonas aeruginosa, P. aeruginosa clinical strain 4 (resistant clinical isolate), read-out: MIC) was no less than 32 µg/mL. The MIC ([1]; Pseudomonas aeruginosa, P. aeruginosa clinical strain 5 (resistant clinical isolate), read-out: MIC) was no less than 32 µg/mL, the MIC ([1]; Pseudomonas aeruginosa, P. aeruginosa clinical strain 6 (resistant clinical isolate), read-out: MIC) was no less than 32 µg/mL and the MIC ([1]; Pseudomonas aeruginosa, P. aeruginosa clinical strain 7 (resistant clinical isolate), read-out: MIC) was no less than 32 µg/mL. For the same compound, the MIC ([1]; Pseudomonas aeruginosa, P. aeruginosa clinical strain 8 (resistant clinical isolate), read-out: MIC) was no less than 32 µg/mL, the MIC ([1]; Pseudomonas aeruginosa, P. aeruginosa clinical strain 9 (resistant clinical isolate), read-out: MIC) was no less than 32 µg/mL and the MIC ([1]; Pseudomonas aeruginosa, P. aeruginosa clinical strain 10 (resistant clinical isolate), read-out: MIC) was no less than 32 µg/mL. For the same compound, the MIC ([1]; Pseudomonas aeruginosa, P. aeruginosa clinical strain 11 (resistant clinical isolate), read-out: MIC) was 8 to 16 µg/mL (≈ 17.1 to 34.2 µM), the MIC ([1]; Pseudomonas aeruginosa, P. aeruginosa clinical strain 12 (resistant clinical isolate), read-out: MIC) was no less than 32 µg/mL and the MIC ([1]; Pseudomonas aeruginosa, P. aeruginosa clinical strain 13 (resistant clinical isolate), read-out: MIC) was no less than 32 µg/mL. The MIC ([1]; Pseudomonas aeruginosa, P. aeruginosa clinical strain 14 (resistant clinical isolate), read-out: MIC) was no less than 32 µg/mL, the MIC ([1]; Pseudomonas aeruginosa, P. aeruginosa clinical strain 15 (resistant clinical isolate), read-out: MIC) was no less than 32 µg/mL and the MIC ([1]; Pseudomonas aeruginosa, P. aeruginosa clinical strain 16 (resistant clinical isolate), read-out: MIC) was no less than 32 µg/mL. For the same compound, the MIC ([1]; Pseudomonas aeruginosa, P. aeruginosa clinical strain 17 (resistant clinical isolate), read-out: MIC) was no less than 32 µg/mL, the MIC ([1]; Pseudomonas aeruginosa, P. aeruginosa clinical strain 18 (resistant clinical isolate), read-out: MIC) was no less than 32 µg/mL and the MIC ([1]; Pseudomonas aeruginosa, P. aeruginosa clinical strain 19 (resistant clinical isolate), read-out: MIC) was no less than 32 µg/mL. For the same compound, the MIC ([1]; Pseudomonas aeruginosa, P. aeruginosa clinical strain 20 (resistant clinical isolate), read-out: MIC) was 1 to 8 µg/mL (≈ 2.14 to 17.1 µM), the MIC ([1]; Pseudomonas aeruginosa, P. aeruginosa clinical strain 21 (resistant clinical isolate), read-out: MIC) was no more than 1 µg/mL and the MIC ([1]; Pseudomonas aeruginosa, P. aeruginosa clinical strain 22 (resistant clinical isolate), read-out: MIC) was no more than 1 µg/mL. For the same compound, the MIC ([1]; Pseudomonas aeruginosa, P. aeruginosa strain 23 (susceptible), read-out: MIC) was no more than 1 µg/mL, the MIC ([1]; Pseudomonas aeruginosa, P. aeruginosa strain 24 (susceptible), read-out: MIC) was no more than 1 µg/mL and the MIC ([1]; Pseudomonas aeruginosa, P. aeruginosa strain 25 (susceptible), read-out: MIC) was no more than 1 µg/mL. The MIC ([1]; Pseudomonas aeruginosa, P. aeruginosa strain 26 (susceptible), read-out: MIC) was no more than 1 µg/mL and the MIC ([1]; Pseudomonas aeruginosa, P. aeruginosa strain 27 (susceptible), read-out: MIC) was 1 to 8 µg/mL (≈ 2.14 to 17.1 µM).
